Test results published in PubChem BioAssay (NCI).
Values joined by “and” are separate entries in the source; they are usually repeats but may differ in a detail not shown here. Equal entries are not always repeated.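 Method: 48-hour compound exposure of cells in 96-well plates, five concentrations, linear interpolation of endpoints. Abbreviation: GI50, concentration required for 50% inhibition of growth. TGI denotes the concentration required for complete inhibition of growth.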

Test system: P388 leukemia
Assay: NCI tumour cell line growth inhibition, 48 h

Compound: Cc1c(-c2ccc(-c3ccccc3F)cc2)nc2ccc(F)cc2c1C(=O)O
- GI50: 0.5 µM
- TGI: 89.8 µM and 106 µM
